# US20050009840A1 (SUGEN, INC., priority 2003, published 2005)
# Molecular target: T1, Met kinase domain (GST fusion protein) (Homo sapiens, UniProt P08581)
# T1 construct: Purified GST fusion protein containing the Met kinase domain
# Assay: Met transphosphorylation assay (ELISA, poly(glu-tyr) substrate);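 further: Cell-free ELISA with plate-bound poly(Glu:Tyr 4:1) phosphorylated by GST-fused Met kinase domain plus ATP and Mn2+, phosphotyrosine detected by anti-phosphotyrosine antibody with HRP and ABTS read-out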
# Type: biochemical
# Details: Table 2; read-out: Met IC50
# T1 sequence (P08581 1078-1345 limits assumed): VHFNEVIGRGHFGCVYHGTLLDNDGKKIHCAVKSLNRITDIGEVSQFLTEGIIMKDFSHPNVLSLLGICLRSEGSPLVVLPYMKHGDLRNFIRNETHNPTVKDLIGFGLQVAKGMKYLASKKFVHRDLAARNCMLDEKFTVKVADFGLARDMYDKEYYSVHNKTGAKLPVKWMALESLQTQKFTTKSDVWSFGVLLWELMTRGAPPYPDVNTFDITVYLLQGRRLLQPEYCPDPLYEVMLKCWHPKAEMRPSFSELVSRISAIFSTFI
row,SMILES,IC50 [µM]
1,"CC(Oc1cc(-c2cccc(C(=O)NCCN3CCOCC3)c2)cnc1N)c1c(F)ccc(F)c1Cl (centres unmarked) [Example I-350, 3-{6-Amino-5-[1-(2-chloro-3,6-difluoro-phenyl)-ethoxy]-pyridin-3-yl}-N-(2-morpholin-4-yl-ethyl)-benzamide]",0.39
2,CC(Oc1cc(-c2cccc(C(=O)N3CCC[C@@H]3CN3CCCC3)c2)cnc1N)c1c(F)ccc(F)c1Cl (some centres unmarked) [Example I-351],0.23
3,CC(Oc1cc(-c2cccc(C(=O)N3CCC[C@H]3CN3CCCC3)c2)cnc1N)c1c(F)ccc(F)c1Cl (some centres unmarked) [Example I-352],0.15
4,"CC(Oc1cc(-c2ccc(OCCN3CCOCC3)cc2)cnc1N)c1c(F)ccc(F)c1Cl (centres unmarked) [Example I-353, 3-[1-(2-Chloro-3,6-difluoro-phenyl)-ethoxy]-5-[4-(2-morpholin-4-yl-ethoxy)-phenyl]-pyridin-2-ylamine]",0.23
5,"CC(Oc1cc(-c2cccc(OCCN3CCOCC3)c2)cnc1N)c1c(F)ccc(F)c1Cl (centres unmarked) [Example I-354, 3-[1-(2-Chloro-3,6-difluoro-phenyl)-ethoxy]-5-[3-(2-morpholin-4-yl-ethoxy)-phenyl]-pyridin-2-ylamine]",0.22
6,"CC(Oc1cc(-c2ccc(OCCN3CCCC3)cc2)cnc1N)c1c(Cl)ccc(F)c1Cl (centres unmarked) [Example I-355, 3-[1-(2,6-Dichloro-3-fluoro-phenyl)-ethoxy]-5-[4-(2-pyrrolidin-1-yl-ethoxy)-phenyl]-pyridin-2-ylamine]",0.068
7,CC(Oc1cc(-c2ccc(OCCC3CCCN3C)cc2)cnc1N)c1c(Cl)ccc(F)c1Cl (centres unmarked) [Example I-356],0.079
8,"CC(Oc1cc(-c2ccc(OCCN3CCOCC3)cc2)cnc1N)c1c(Cl)ccc(F)c1Cl (centres unmarked) [Example I-357, 3-[1-(2,6-Dichloro-3-fluoro-phenyl)-ethoxy]-5-[4-(2-morpholin-4-yl-ethoxy)-phenyl]-pyridin-2-ylamine]",0.13
9,"CC(Oc1cc(-c2cccc(OCCN3CCOCC3)c2)cnc1N)c1c(Cl)ccc(F)c1Cl (centres unmarked) [Example I-358, 3-[1-(2,6-Dichloro-3-fluoro-phenyl)-ethoxy]-5-[3-(2-morpholin-4-yl-ethoxy)-phenyl]-pyridin-2-ylamine]",0.22
10,"CC(Oc1cc(-c2ccc(OCC(O)CN3CCOCC3)cc2)cnc1N)c1c(Cl)ccc(F)c1Cl (centres unmarked) [Example I-359, 1-(4-{6-Amino-5-[1-(2,6-dichloro-3-fluoro-phenyl)-ethoxy]-pyridin-3-yl}-phenoxy)-3-morpholin-4-yl-propan-2-ol]",0.045
11,"CCN(CC)CCOc1ccc(-c2cnc(N)c(OC(C)c3c(Cl)ccc(F)c3Cl)c2)cc1 (centres unmarked) [Example I-360, 3-[1-(2,6-Dichloro-3-fluoro-phenyl)-ethoxy]-5-[4-(2-diethylamino-ethoxy)-phenyl]-pyridin-2-ylamine]",0.033
12,"CC(Oc1cc(-c2ccc(OCC3CCCN(C)C3)cc2)cnc1N)c1c(Cl)ccc(F)c1Cl (centres unmarked) [Example I-361, 3-[1-(2,6-Dichloro-3-fluoro-phenyl)-ethoxy]-5-[4-(1-methyl-piperidin-3-ylmethoxy)-phenyl]-pyridin-2-ylamine]",0.043
13,CC(Oc1cc(-c2ccc(OCCN(C(C)C)C(C)C)cc2)cnc1N)c1c(Cl)ccc(F)c1Cl (centres unmarked) [Example I-362],0.052
14,"CC(Oc1cc(-c2ccc(OC3CCN(C)CC3)cc2)cnc1N)c1c(Cl)ccc(F)c1Cl (centres unmarked) [Example I-363, 3-[1-(2,6-Dichloro-3-fluoro-phenyl)-ethoxy]-5-[4-(1-methyl-piperidin-4-yloxy)-phenyl]-pyridin-2-ylamine]",0.052
15,"CC(Oc1cc(-c2ccc(NS(C)(=O)=O)cc2)cnc1N)c1c(F)ccc(F)c1Cl (centres unmarked) [Example I-364, N-(4-{6-Amino-5-[1-(2-chloro-3,6-difluoro-phenyl)-ethoxy]-pyridin-3-yl}-phenyl)-methanesulfonamide]",0.1

# Same assay, conditions: plain numbers in column Met IC50 (μM) of Table 2; read-out: Met IC50
row,SMILES,IC50 [µM]
1,"CC(Oc1cc(-c2ccc(N3CCCS3(=O)=O)cc2)cnc1N)c1c(F)ccc(F)c1Cl (centres unmarked) [Example I-365, 3-[1-(2-Chloro-3,6-difluoro-phenyl)-ethoxy]-5-[4-(1,1-dioxo-1lambda*6*- isothiazolidin-2-yl)-phenyl]-pyridin-2-ylamine]",0.14
2,"CC(Oc1cc(-c2ccc(NS(C)(=O)=O)cc2)cnc1N)c1c(Cl)ccc(F)c1Cl (centres unmarked) [Example I-366, N-(4-{6-Amino-5-[1-(2,6-dichloro-3-fluoro-phenyl)-ethoxy]-pyridin-3-yl}-phenyl)-methanesulfonamide]",0.076
3,"C[C@@H](Oc1cc(-c2ccc(NS(C)(=O)=O)cc2)cnc1N)c1c(F)ccc(F)c1Cl [Example I-368, N-(4-{6-Amino-5-[(R)-1-(2-chloro-3,6-difluoro-phenyl)-ethoxy]-pyridin-3-yl}-phenyl)-methanesulfonamide]",0.066
4,"CC(Oc1cc(-c2ccsc2)cnc1N)c1c(Cl)ccc(F)c1Cl (centres unmarked) [Example I-369, 3-[1-(2,6-Dichloro-3-fluoro-phenyl)-ethoxy]-5-thiophen-3-yl-pyridin-2-ylamine]",0.055
5,"CC(Oc1cc(-c2cc3ccccc3s2)cnc1N)c1c(Cl)ccc(F)c1Cl (centres unmarked) [Example I-370, 5-Benzo[b]thiophen-2-yl-3-[1-(2,6-dichloro-3-fluoro-phenyl)-ethoxy]-pyridin-2-ylamine]",1.95
6,"CC(Oc1cc(-c2ccc(NC(=O)N3CCN(C)CC3)cc2)cnc1N)c1c(Cl)ccc(F)c1Cl (centres unmarked) [Example I-371, 4-Methyl-piperazine-1-carboxylic acid (4-{6-amino-5-[1-(2,6-dichloro-3-fluoro-phenyl)-ethoxy]-pyridin-3-yl}-phenyl)-amide]",0.057
7,"CC(Oc1cc(-c2ccc(NC(=O)NCCN3CCCC3)cc2)cnc1N)c1c(Cl)ccc(F)c1Cl (centres unmarked) [Example I-372, 1-(4-{6-Amino-5-[1-(2,6-dichloro-3-fluoro-phenyl)-ethoxy]-pyridin-3-yl}-phenyl)-3-(2-pyrrolidin-1-yl-ethyl)-urea]",0.21
8,"CC(Oc1cc(-c2ccc(NC(=O)NCCO)cc2)cnc1N)c1c(Cl)ccc(F)c1Cl (centres unmarked) [Example I-373, 1-(4-{6-Amino-5-[1-(2,6-dichloro-3-fluoro-phenyl)-ethoxy]-pyridin-3-yl}-phenyl)-3-(2-hydroxy-ethyl)-urea]",0.064
9,"CC(Oc1cc(-c2ccc(NC(=O)NCCN3CCOCC3)cc2)cnc1N)c1c(Cl)ccc(F)c1Cl (centres unmarked) [Example I-374, 1-(4-{6-Amino-5-[1-(2,6-dichloro-3-fluoro-phenyl)-ethoxy]-pyridin-3-yl}-phenyl)-3-(2-morpholin-4-yl-ethyl)-urea]",0.062
10,"CC(Oc1cc(-c2ccc(NC(=O)N3CC[C@@H](N)C3)cc2)cnc1N)c1c(Cl)ccc(F)c1Cl (stereo partly drawn) [Example I-375, (R)-3-Amino-pyrrolidine-1-carboxylix acid (4-{6-amino-5-[1-(2,6-dichloro-3-fluoro-phenyl)-ethoxy]-pyridin-3-yl}-phenyl)-amide]",0.053
11,"CC(Oc1cc(-c2ccc(NC(=O)N3CC[C@H](N)C3)cc2)cnc1N)c1c(Cl)ccc(F)c1Cl (stereo partly drawn) [Example I-376, (S)-3-Amino-pyrrolidine-1-carboxylic acid (4-{6-amino-5-[1-(2,6-dichloro-3-fluoro-phenyl)-ethoxy]-pyridin-3-yl}-phenyl)-amide]",0.052
12,"CC(Oc1cc(-c2ccc(NC(=O)NC3CCN(C)CC3)cc2)cnc1N)c1c(Cl)ccc(F)c1Cl (centres unmarked) [Example I-377, 1-(4-{6-Amino-5-[1-(2,6-dichloro-3-fluoro-phenyl)-ethoxy]-pyridin-3-yl}-phenyl)-3-(1-methyl-pipendin-4-yl)-urea]",0.04
13,"CC(Oc1cc(-c2ccc(NC(=O)NC3CCN(C)CC3)cc2)cnc1N)c1c(F)ccc(F)c1Cl (centres unmarked) [Example I-378, 1-(4-{6-Amino-5-[1-(2-chloro-3,6-difluoro-phenyl)-ethoxy]-pyridin-3-yl}-phenyl)-3-(1-methyl-pipendin-4-yl)-urea]",0.038
14,"CC(Oc1cc(-c2ccc(NC(=O)N3CC[C@@H](N)C3)cc2)cnc1N)c1c(F)ccc(F)c1Cl (stereo partly drawn) [Example I-379, (R)-3-Amino-pyrrolidine-1-carboxylic acid (4-{6-amino-5-[1-(2-chloro-3,6-difluoro-phenyl)-ethoxy]-pyridin-3-yl}-phenyl)-amide]",0.069
15,"CC(Oc1cc(-c2ccc(NC(=O)N3CC[C@H](N)C3)cc2)cnc1N)c1c(F)ccc(F)c1Cl (stereo partly drawn) [Example I-380, (S)-3-Amino-pyrrolidine-1-carboxylic acid (4-{6-amino-5-[1-(2-chloro-3,6-difluoro-phenyl)-ethoxy}-pyridin-3-yl}-phenyl)-amide]",0.075
16,"CC(Oc1cc(-c2ccc(NC(=O)NCCO)cc2)cnc1N)c1c(F)ccc(F)c1Cl (centres unmarked) [Example I-381, 1-(4-{6-Amino-5-[1-(2-chloro-3,6-difluoro-phenyl)-ethoxy]-pyridin-3-yl}-phenyl)-3-(2-hydroxy-ethyl)-urea]",0.11
17,"CC(Oc1cc(-c2ccc(NC(=O)N3CCN(C)CC3)cc2)cnc1N)c1c(F)ccc(F)c1Cl (centres unmarked) [Example I-382, 4-Methyl-piperazine-1-carboxylic acid (4-{6-amino-5-[1-(2-chloro-3,6-difluoro-phenyl)-ethoxy]-pyridin-3-yl}-phenyl)-amine]",0.082
18,"CC(Oc1cc(-c2ccc(NC(=O)NCCN3CCCC3)cc2)cnc1N)c1c(F)ccc(F)c1Cl (centres unmarked) [Example I-383, 1-(4-{6-Amino-5-[1-(2-chloro-3,6-difluoro-phenyl)-ethoxy]-pyridin-3-yl}-phenyl)-3-(2-pyrrolidin-1-yl-ethyl)-urea]",0.11
19,"CC(Oc1cc(-c2ccc(NC(=O)NCCN3CCOCC3)cc2)cnc1N)c1c(F)ccc(F)c1Cl (centres unmarked) [Example I-384, 1-(4-{6-Amino-5-[1-(2-chloro-3,6-difluoro-phenyl)-ethoxy]-pyridin-3-yl}-phenyl)-3-(2-morpholin-4-yl-ethyl)-urea]",0.13
20,"CC(Oc1cc(-c2ccc(NC(=O)N3CCC[C@@H]3CN3CCCC3)cc2)cnc1N)c1c(F)ccc(F)c1Cl (stereo partly drawn) [Example I-385, (R)-2-Pyrrolidin-1-ylmethyl-pyrrolidine-1-carboxylic acid (4-{6-amino-5-[1-(2-chloro-3,6-difluoro-phenyl)-ethoxy]-pyridin-3-yl}-phenyl)-amide]",0.13
